Consider ten compounds from ChEMBL document CHEMBL1201862, “PubChem BioAssay data set” (2004).

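In this assay, cells in 96-well plates receive the compound at five concentrations for 48 hours. Endpoints are linearly interpolated between the surrounding concentrations. Here, GI50 denotes the concentration required for 50% inhibition of growth.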 Active and inactive are the calls of the source. Cut-off read from the data, not from the text of the source: active = GI50 up to about 1.1 µM and inactive = higher. Where only a bound is given, the exact number is not on record here.

Some test systems named below: SF-268; SNB-19; SF-295; TK-10; 786-0; NCI-H23; NCI-H460; SK-MEL-5; K562; SK-MEL-2; UACC-257; MOLT-4; OVCAR-3; SNB-75; SK-MEL-28; NCI/ADR-RES; IGROV-1; HL-60; SN12C; HCC 2998.
Holding throughout (assay): NCI anticancer screen, dose series, 48 h

`COc1ccc2c(c1)CCCc1c-2nc2ccccc2c1N`: the GI50 in the assay with SF-268 is 15.3 µM (inactive); with SNB-19, 15.9 µM (inactive); in the assay on SF-295, 11.1 µM (inactive); in the assay with TK-10, 10.7 µM (inactive); with 786-0, 6.11 µM (inactive); with NCI-H23, 15.4 µM (inactive). The GI50 in the assay on NCI-H460 is 4.44 µM (inactive); with SK-MEL-5 it was 3.72 µM (inactive); in the assay on K562, 5.14 µM (inactive); with SK-MEL-2 it was 15.7 µM (inactive); with UACC-257, 2.45 µM (inactive); with MOLT-4, 8.59 µM (inactive). Also, the GI50 in the assay with OVCAR-3 was 12.9 µM (inactive); with SNB-75, 10.7 µM (inactive); in the assay with SK-MEL-28 it was 10.8 µM (inactive); in the assay on NCI/ADR-RES it was 12.9 µM (inactive); with IGROV-1 it was 12.4 µM (inactive); in the assay on HL-60 it was 13.9 µM (inactive). Moreover, the GI50 in the assay with SN12C was 4.38 µM (inactive); with HCC 2998 it was 1.87 µM (inactive).

In the case of `Cc1c(CNc2ccc(C(=O)NC(CCCNC(=O)c3ccccc3C(=O)O)C(=O)O)cc2)cnc2nc(N)nc(N)c12` (stereo not given), the GI50 in the assay on SF-268 was 0.000356 µM (active); in the assay on SNB-19, 0.01 µM (active); with SF-295 it was 0.000593 µM (active); in the assay on TK-10, 1.79 µM (inactive); in the assay on 786-0, < 0.0001 µM (active); with NCI-H23, 0.00151 µM (active). Moreover, the GI50 with NCI-H460 was 0.000381 µM (active); in the assay on SK-MEL-5 it was 0.000644 µM (active); in the assay on K562, < 0.0001 µM (active); in the assay on SK-MEL-2, 1.22 µM (inactive); in the assay on UACC-257, 0.785 µM (active); with MOLT-4 it was 0.000566 µM (active). For the same compound, the GI50 in the assay on OVCAR-3 was 0.0168 µM (active); in the assay with SNB-75, 0.00222 µM (active); in the assay with SK-MEL-28 it was 0.192 µM (active); with NCI/ADR-RES it was 0.000298 µM (active); with IGROV-1, 0.000518 µM (active); in the assay with HL-60, > 100 µM (inactive). The figures for the GI50 in the assay with SN12C and with HCC 2998 were 0.00466 µM (active) and 0.000899 µM (active), respectively.

`S=C(NCc1ccccn1)N/N=C/c1ccccn1`: the GI50 is 0.0214 µM (active) in the assay on SF-268; 0.726 µM (active) in the assay on SNB-19; 0.0482 µM (active) with SF-295; 0.0195 µM (active) in the assay on TK-10; < 0.01 µM (active) in the assay with 786-0; < 0.01 µM (active) with NCI-H23. The GI50 in the assay with NCI-H460 was 0.0556 µM (active); in the assay on SK-MEL-5, 0.0184 µM (active); in the assay with K562 it was < 0.01 µM (active); in the assay on SK-MEL-2, 0.0234 µM (active); in the assay with UACC-257, < 0.01 µM (active); with MOLT-4, < 0.01 µM (active). Besides, the GI50 in the assay with OVCAR-3 was < 0.01 µM (active); in the assay with SNB-75, 3.05 µM (inactive); in the assay on SK-MEL-28 it was 0.518 µM (active); in the assay on NCI/ADR-RES, < 0.01 µM (active); with IGROV-1 it was < 0.01 µM (active); in the assay with HL-60, < 0.01 µM (active). For the same compound, the values for the GI50 in the assay with SN12C and with HCC 2998 were 0.0724 µM (active) and 0.229 µM (active), respectively.

In the case of `N=C(N)NS(=O)(=O)c1ccc(Nc2c3ccccc3nc3c(C(=O)NCCO)cccc23)cc1`, the GI50 in the assay with SF-268 was 0.171 µM (active); in the assay with SNB-19, 0.221 µM (active); in the assay on SF-295, 0.263 µM (active); in the assay with TK-10, 0.281 µM (active); in the assay on 786-0, 0.191 µM (active); in the assay on NCI-H23 it was 0.167 µM (active). Besides, the GI50 with NCI-H460 is 0.127 µM (active); with SK-MEL-5, 0.142 µM (active); with K562, 0.216 µM (active); with SK-MEL-2 it was 0.199 µM (active); with UACC-257, 0.243 µM (active); in the assay with MOLT-4, 0.0885 µM (active). Besides, the GI50 was 0.142 µM (active) in the assay with OVCAR-3; 22.6 µM (inactive) with SNB-75; 0.248 µM (active) in the assay with SK-MEL-28; 0.296 µM (active) in the assay with NCI/ADR-RES; 0.141 µM (active) in the assay on IGROV-1; 0.293 µM (active) in the assay on HL-60. Moreover, the figures for the GI50 with SN12C and with HCC 2998 were 0.202 µM (active) and 0.19 µM (active), respectively.

With `CN(C)CCOc1ccc2[nH]c(C(=O)N3CC(CCl)c4c3cc(N)c3ccccc43)cc2c1` (stereo not given), the GI50 in the assay on SF-268, with SNB-19, with SF-295, in the assay on TK-10, in the assay on 786-0 and with NCI-H23 was < 0.01 µM (active) in each case. Further, the GI50 in the assay on NCI-H460, in the assay with SK-MEL-5, in the assay on K562, with SK-MEL-2, with UACC-257 and in the assay on MOLT-4 was < 0.01 µM (active) each time. Also, the GI50 with OVCAR-3, in the assay with SNB-75, with SK-MEL-28, with NCI/ADR-RES, in the assay on IGROV-1 and in the assay with HL-60 was < 0.01 µM (active) each time. Further, the GI50 in the assay with SN12C and in the assay on HCC 2998 was < 0.01 µM (active) throughout.

With `O=C(Cn1cc(Br)c(=O)[nH]c1=O)c1ccc(-c2ccccc2)cc1`, the GI50 is 4.71 µM (inactive) in the assay with SF-268; 2.25 µM (inactive) in the assay on SNB-19; 10.9 µM (inactive) with SF-295; > 30.8 µM (inactive) with TK-10; 10.5 µM (inactive) in the assay with 786-0; 16.4 µM (inactive) in the assay on NCI-H23. For the same compound, the GI50 with NCI-H460 is > 15.9 µM (inactive); in the assay with SK-MEL-5, > 15.6 µM (inactive); with K562, > 11.2 µM (inactive); with SK-MEL-2, > 12.4 µM (inactive); with UACC-257, 15.9 µM (inactive); with MOLT-4, > 13 µM (inactive). For the same compound, the GI50 in the assay with OVCAR-3 was > 100 µM (inactive); with SNB-75, 1.85 µM (inactive); in the assay with SK-MEL-28, > 14.3 µM (inactive); in the assay with NCI/ADR-RES, 13 µM (inactive); in the assay on IGROV-1, 15.7 µM (inactive); in the assay with HL-60, > 17.4 µM (inactive). The GI50 is 16.1 µM (inactive) in the assay on SN12C and > 15.8 µM (inactive) in the assay on HCC 2998.

For `CN(C)CCCCN1c2ccccc2Sc2ccc(N=[N+]=[N-])cc21`, the GI50 in the assay with SF-268 was 5.97 µM (inactive); in the assay with SNB-19 it was 8.85 µM (inactive); in the assay on SF-295 it was 5.66 µM (inactive); in the assay on TK-10, 12.1 µM (inactive); in the assay with 786-0 it was 8.69 µM (inactive); in the assay on NCI-H23, 13.3 µM (inactive). In addition, the GI50 in the assay with NCI-H460 is 4.09 µM (inactive); in the assay with SK-MEL-5, 1.67 µM (inactive); in the assay with K562 it was 2.05 µM (inactive); with SK-MEL-2, 3.08 µM (inactive); in the assay on UACC-257, 1.92 µM (inactive); in the assay with MOLT-4 it was 1.39 µM (inactive). For the same compound, the GI50 with OVCAR-3 is 6.05 µM (inactive); with SNB-75, 2.62 µM (inactive); in the assay on SK-MEL-28, 1.91 µM (inactive); in the assay on NCI/ADR-RES, 9.98 µM (inactive); with IGROV-1, 3.08 µM (inactive); in the assay with HL-60 it was 2.06 µM (inactive). The results for the GI50 in the assay with SN12C and in the assay with HCC 2998 were 8.43 µM (inactive) and 1.66 µM (inactive), respectively.

With `CC1CN=C(N(C(=O)Nc2ccc(Cl)c(Cl)c2)c2ccccc2)S1` (stereo not given), the GI50 with SF-268 was 69.2 µM (inactive); in the assay on SNB-19, > 100 µM (inactive); in the assay on SF-295, 75.7 µM (inactive); with TK-10, 38.9 µM (inactive); in the assay on 786-0, 43.4 µM (inactive); in the assay on NCI-H23 it was 64.9 µM (inactive). In addition, the GI50 is 43.4 µM (inactive) with NCI-H460; 20.7 µM (inactive) with SK-MEL-5; > 10 µM (inactive) with K562; 23 µM (inactive) with SK-MEL-2; 68.5 µM (inactive) in the assay with UACC-257; > 100 µM (inactive) with MOLT-4. In addition, the GI50 in the assay with OVCAR-3 was 68.1 µM (inactive); in the assay on SNB-75 it was 56.2 µM (inactive); with SK-MEL-28 it was 38.5 µM (inactive); with NCI/ADR-RES it was 34.8 µM (inactive); with IGROV-1 it was > 100 µM (inactive); in the assay on HL-60 it was > 10 µM (inactive). Also, the GI50 in the assay with SN12C and in the assay with HCC 2998 was 33.6 µM (inactive) each time.

As to `Fc1ccccc1C1SCc2nc3cc4ccccc4cc3n21` (stereo not given), the GI50 in the assay on SF-268 is 45.3 µM (inactive); with SNB-19, 32.5 µM (inactive); in the assay with SF-295 it was 34.4 µM (inactive); in the assay on TK-10, 63.8 µM (inactive); in the assay on 786-0, 20.5 µM (inactive); with NCI-H23, > 100 µM (inactive). Further, the GI50 in the assay with NCI-H460 is 26.5 µM (inactive); in the assay with SK-MEL-5, 71.1 µM (inactive); in the assay on K562, > 100 µM (inactive); in the assay with SK-MEL-2, > 100 µM (inactive); in the assay on UACC-257 it was 61.1 µM (inactive); in the assay with MOLT-4, > 100 µM (inactive). Besides, the GI50 in the assay on OVCAR-3 was > 100 µM (inactive); with SNB-75, 31.7 µM (inactive); in the assay on SK-MEL-28 it was 54.3 µM (inactive); in the assay with NCI/ADR-RES it was 49.1 µM (inactive); in the assay with IGROV-1 it was 62.5 µM (inactive); in the assay on HL-60, 13.2 µM (inactive). For the same compound, the GI50 in the assay on SN12C is 36.1 µM (inactive); with HCC 2998 it was 72.6 µM (inactive).

In the case of `O=C(O)C1C(Br)(c2ccccc2)C1(Br)c1ccccc1` (stereo not given), the GI50 in the assay on SF-268 is 24.3 µM (inactive); in the assay on SNB-19 it was 27.4 µM (inactive); in the assay on SF-295, 37.9 µM (inactive); with TK-10 it was 33.7 µM (inactive); in the assay with 786-0 it was 32.3 µM (inactive); with NCI-H23, 38.4 µM (inactive). In addition, the GI50 in the assay with NCI-H460 was 14.2 µM (inactive); with SK-MEL-5, 28.8 µM (inactive); with K562, 20.1 µM (inactive); in the assay on SK-MEL-2, 37.5 µM (inactive); with UACC-257 it was 48.9 µM (inactive); in the assay on MOLT-4, 15.2 µM (inactive). Further, the GI50 with OVCAR-3 is 50.4 µM (inactive); with SNB-75 it was 35.3 µM (inactive); in the assay on SK-MEL-28, 21.5 µM (inactive); in the assay on NCI/ADR-RES, 52.4 µM (inactive); in the assay on IGROV-1, 17.8 µM (inactive); in the assay on HL-60, 12.4 µM (inactive). The figures for the GI50 with SN12C and in the assay on HCC 2998 were 34.4 µM (inactive) and 22.6 µM (inactive), respectively.
